This note sets out measurements from article PMC12040169 (PLOS Biology, 2025).

The data set in a line: in vitro. The conditions noted are these: human, hela cells, % viability.
Broadly, the viability is a read-out of living cells in per cent, often relative to untreated cells. With `COc1ccc(-c2nccnc2N2CCN(C)CC2)cc1` [CBK038012], the viability at 28.5 h, 10 µM stood at 113%.

Take `COc1cc(-c2nccnc2NCCc2c[nH]c3ccccc23)cc(OC)c1OC` [CBK038015]: the viability at 28.5 h, 10 µM was 102%.

For `Nc1cccc(-c2cc(C(=O)NCCc3cccnc3)cnc2-c2ccc(F)cc2)c1` [CBK038016], the viability at 28.5 h, 10 µM was 102%.

As for `FC(F)(F)Oc1cccc(-c2cn3ccnc3c(NCCc3ccccn3)n2)c1` [CBK038017], the viability at 28.5 h, 10 µM came out at 96.7%.

Take `O=C(O)CCc1ccc(-c2cn3ccnc3c(NCc3ccncc3)n2)cc1` [CBK038022]: the viability at 28.5 h, 10 µM is 90.6%.

In the case of `COc1cc(-c2nccnc2N[C@@H](CO)C(C)C)cc(OC)c1OC` [CBK038023], the viability at 28.5 h, 10 µM stood at 111%.

Take `Brc1cn2ccnc2c(NCc2ccccn2)n1` [CBK038024]: the viability at 28.5 h, 10 µM amounted to 88.7%.

For `COc1ccc(-c2cc(C(=O)Nc3ccc(O)cc3)cnc2-c2ccc(F)cc2)cc1` [CBK038026], the viability at 28.5 h, 10 µM is 95.5%.

Take `COc1cc(C(O)CNC(=O)c2cnc(-c3ccc(F)cc3)c(-c3cccc(N)c3)c2)ccc1O` (stereo not shown) [CBK038032]: the viability at 28.5 h, 10 µM came out at 98.8%.

Take `CN(C)C(CNc1nccnc1-c1ccc(CO)cc1)c1cccnc1` (stereo not shown) [CBK038038]: the viability at 28.5 h, 10 µM stood at 87.6%.

Consider `Clc1ccccc1-c1cn2ccnc2c(NCc2cccnc2)n1` [CBK038039], for which the viability at 28.5 h, 10 µM came to 94.5%.

For `CCN(CCO)c1ccc(Nc2nc(-c3ccc(F)c(Cl)c3)cn3ccnc23)cc1` [CBK038042], the viability at 28.5 h, 10 µM is 100%.

Take `O=C(O)CCc1ccc(-c2cn3ccnc3c(Nc3ccc(Br)cc3)n2)cc1` [CBK038058]: the viability at 28.5 h, 10 µM stood at 113%.

Turning to `COc1cc(CNc2nc(Br)cn3ccnc23)cc(OC)c1OC` [CBK038060], the viability at 28.5 h, 10 µM turned out to be 110%.

Turning to `COc1cc(Nc2nc(-c3ccc4[nH]ccc4c3)cn3ccnc23)cc(OC)c1OC` [CBK038069], the viability at 28.5 h, 10 µM turned out to be 95.5%.

Consider `CC(C)[C@H](CO)Nc1nc(-c2ccc3c(c2)OCO3)cn2ccnc12` [CBK038071], for which the viability at 28.5 h, 10 µM stood at 101%.

Turning to `CCCC/C=C/c1nccnc1NCc1ccc(C(F)(F)F)cc1` [CBK038077], the viability at 28.5 h, 10 µM was 94.4%.

On to `Cc1cccc(CNc2nccnc2-c2cccc(N)c2)c1` [CBK038080], for which the viability at 28.5 h, 10 µM was found to be 92.4%.

Take `OCCN1CCN(c2nccnc2-c2ccncc2)CC1` [CBK038084]: the viability at 28.5 h, 10 µM is 89.2%.

Regarding `CCCC/C=C/c1cn2ccnc2c(Nc2ccc(OC)nc2)n1` [CBK038089], the viability at 28.5 h, 10 µM was determined as 100%.

Regarding `CCCC/C=C/c1nccnc1NCc1cccs1` [CBK038090], the viability at 28.5 h, 10 µM came to 101%.

With `OCCCNc1nccnc1-c1ccccc1Cl` [CBK038092], the viability at 28.5 h, 10 µM was found to be 81.6%.

With `COc1ccc([C@@]23CC[C@H](NC(=O)c4[nH]cnc4C)C[C@@H]2N(C)CC3)cc1OC` [CBK038097], the viability at 28.5 h, 10 µM amounted to 118%.

`O=S(=O)(Nc1cc(F)cc(C(F)(F)F)c1)c1cc2c(N3CCNCC3)nccc2s1` [CBK038102C]: the viability at 28.5 h, 10 µM came to 95.5%.

For the molecule `CC(C)c1ccc(NS(=O)(=O)c2cc3c(N4CCNCC4)nccc3s2)cc1` [CBK038104C], the viability at 28.5 h, 10 µM is 91.4%.

As to `Cn1nc(C2CC2)cc1NS(C)(=O)=O` [CBK038148], the viability at 28.5 h, 10 µM was determined as 93.9%.

In the case of `CS(=O)(=O)Nc1nnc(C(F)(F)F)s1` [CBK038168], the viability at 28.5 h, 10 µM turned out to be 97.6%.

On to `COc1ccc([C@@]23CC[C@@H](NC(=O)CNc4ccc(Cl)c(Cl)c4)C[C@@H]2N(C)CC3)cc1OC` [CBK038220], for which the viability at 28.5 h, 10 µM came to 94.4%.

With `COc1ccc([C@@]23CC[C@@H](NC(=O)Nc4ccc(Cl)c(C(F)(F)F)c4)C[C@@H]2N(C)CC3)cc1OC` [CBK038224C], the viability at 28.5 h, 10 µM is 98.4%.

Consider `COC12CCCC(C(=O)O)(CCC1)C2` [CBK038238], for which the viability at 28.5 h, 10 µM was 93.8%.

Regarding `CN(C)CCNc1nccc2sc(S(=O)(=O)NCCC3=CCCCC3)cc12` [CBK038244C], the viability at 28.5 h, 10 µM was determined as 108%.

For `COc1cc(CNS(=O)(=O)c2cc3c(NCCN(C)C)nccc3s2)cc(OC)c1OC` [CBK038246C], the viability at 28.5 h, 10 µM stood at 91.8%.

Turning to `CC(=O)Oc1cc(C)cc(C#N)c1` [CBK038296], the viability at 28.5 h, 10 µM amounted to 87.6%.

As for `CC1(C)OCC2(CCN(C(C)(C)C)CC2)O1` [CBK038298], the viability at 28.5 h, 10 µM was determined as 93.2%.

For `[O-][S+](c1ccc(Cl)c(Cl)c1)c1cc2c(N3CCCNCC3)nccc2s1` (stereo not shown) [CBK038304C], the viability at 28.5 h, 10 µM amounted to 71.2%.

With `C=CCN(c1ccccc1)S(=O)(=O)c1ccc(Br)cc1CC` [CBK038344], the viability at 28.5 h, 10 µM worked out at 95.8%.

`COc1ccc(C(F)(F)F)cc1N` [CBK038366]: the viability at 28.5 h, 10 µM came to 89.6%.

For the molecule `OC1CCN(c2nccc(C(F)(F)F)n2)CC1` [CBK038372], the viability at 28.5 h, 10 µM came out at 92.1%.

Take `CC(C)(C)c1ccc(S(=O)(=O)N2CCC3(CC2)OCCO3)cc1` [CBK038429]: the viability at 28.5 h, 10 µM came out at 111%.

For the molecule `CC(C)(C)CC(C)(C)NC(=O)NCCc1cccs1` [CBK038697], the viability at 28.5 h, 10 µM is 91.8%.

In the case of `CC(=O)Nc1cccc(C(=O)O)c1Cl` [CBK038814], the viability at 28.5 h, 10 µM was determined as 94.1%.

Consider `COc1ccc([C@@]23CC[C@@H](NC(=O)Nc4cccc5nsnc45)C[C@@H]2N(C)CC3)cc1OC` [CBK038874T], for which the viability at 28.5 h, 10 µM is 86.8%.

As to `CC(C)c1nsc(NS(=O)(=O)c2cccc(C(F)(F)F)c2)n1` [CBK038881], the viability at 28.5 h, 10 µM worked out at 98.3%.

On to `O=C(O)c1cccc(NS(=O)(=O)Cc2ccccc2)c1` [CBK038894], for which the viability at 28.5 h, 10 µM was found to be 96.4%.

As to `O=C(O)c1cccc(NS(=O)(=O)Cc2ccccc2[N+](=O)[O-])c1` [CBK038906], the viability at 28.5 h, 10 µM came to 97.8%.

In the case of `COc1ccc(/C=C(\C)C(=O)NCc2ccc(OC3CCNCC3)cc2)cc1OC` [CBK038914T], the viability at 28.5 h, 10 µM came to 90.9%.

Turning to `Cc1oc(-c2ccccc2)cc1C(=O)NCc1ccc(OC2CCNCC2)cc1` [CBK038915T], the viability at 28.5 h, 10 µM stood at 108%.

`O=C(/C=C/c1cccnc1)Nc1cncc(OC2CCNCC2)n1` [CBK038919T]: the viability at 28.5 h, 10 µM is 96.9%.

Turning to `CC1(C)CC(=O)C=C(C(=O)Nc2cncc(OC3CCNCC3)n2)O1` [CBK038922T], the viability at 28.5 h, 10 µM is 103%.

On to `CC1(C)CC(=O)C=C(C(=O)Nc2ccccc2N2CCCNCC2)O1` [CBK038935T], for which the viability at 28.5 h, 10 µM turned out to be 112%.

`Cc1oc(-c2ccccc2)cc1C(=O)Nc1cc2ccccc2c(N2CCNCC2)n1` [CBK038938T]: the viability at 28.5 h, 10 µM came to 104%.

As to `O=C(NCc1ccc(OC2CCNCC2)cc1)c1coc2c1C(=O)CCC2` [CBK038944T], the viability at 28.5 h, 10 µM turned out to be 101%.

`O=C(/C=C/c1cccnc1)NCc1ccc(OC2CCNCC2)cc1` [CBK038945T]: the viability at 28.5 h, 10 µM worked out at 88.7%.

For the molecule `CC1(C)CC(=O)C=C(C(=O)NCc2ccc(OC3CCNCC3)cc2)O1` [CBK038948T], the viability at 28.5 h, 10 µM was found to be 96.1%.

In the case of `COc1cccc(CS(=O)(=O)c2c(Br)sc3ccnc(N4CCNCC4)c23)c1` [CBK038956C], the viability at 28.5 h, 10 µM was determined as 95.1%.

As for `CN1CCN(C(=O)c2cccc(NS(=O)(=O)c3cc(Cl)sc3Cl)c2)CC1` [CBK038966], the viability at 28.5 h, 10 µM is 96.2%.

Consider `Cc1noc(C)c1S(=O)(=O)Nc1cccc(C(=O)N2CCN(C)CC2)c1` [CBK038972], for which the viability at 28.5 h, 10 µM came to 101%.

With `CCCc1ccc(S(=O)(=O)Nc2cccc(C(=O)Nc3ccc(F)cc3)c2)cc1` [CBK038978], the viability at 28.5 h, 10 µM was found to be 97.4%.

For the molecule `CCN(CC)C(=O)c1cccc(NS(=O)(=O)c2cccc3cccnc23)c1` [CBK038999], the viability at 28.5 h, 10 µM turned out to be 66.5%.

As for `COC(=O)c1ccsc1NS(=O)(=O)c1ccc(Br)cc1` [CBK039058], the viability at 28.5 h, 10 µM was 94.1%.

`COC(=O)c1ccsc1NS(=O)(=O)c1ccc(NC(C)=O)cc1` [CBK039063]: the viability at 28.5 h, 10 µM came out at 87.7%.

As for `COC(=O)c1ccsc1NS(=O)(=O)Cc1ccccc1` [CBK039067], the viability at 28.5 h, 10 µM was 108%.

Consider `Cc1ccc(C(=O)N2CCCN(C(=O)CN3CCCC3)C2)cc1` [CBK039081], for which the viability at 28.5 h, 10 µM came out at 87.2%.

On to `Cc1ccc(C(=O)N2CCN(CC(=O)N3CCCC3)CC2)cc1` [CBK039096], for which the viability at 28.5 h, 10 µM was determined as 110%.

Consider `NC1=NC(=O)C(CC(=O)Nc2ccccc2Cl)S1` (stereo not shown) [CBK039145], for which the viability at 28.5 h, 10 µM worked out at 99.1%.

Take `OCCOc1cccnc1OCCN1CCCC1` [CBK039174]: the viability at 28.5 h, 10 µM amounted to 85.3%.

Turning to `CN1CCCC1CCOc1ncccc1OCCO` (stereo not shown) [CBK039176], the viability at 28.5 h, 10 µM was 118%.

For `COc1cc([C@@]23CC[C@@H](NC(=O)Nc4cccc(Cl)c4)C[C@@H]2N(C)CC3)cc(OC)c1OC` [CBK039212], the viability at 28.5 h, 10 µM was 93.7%.

Consider `COc1ccc2[nH]c3c(c2c1)CCNC31CCCN(CCc2ccc(F)cc2)C1` (stereo not shown) [CBK039246], for which the viability at 28.5 h, 10 µM worked out at 90.9%.

As to `Cc1cccc(CCN2CCC3(CC2)NCCc2c3[nH]c3ccc(Br)cc23)c1` [CBK039280], the viability at 28.5 h, 10 µM is 83.3%.

Regarding `Cc1ccc2[nH]cc(CCN3CCC4(CC3)NCCc3c4[nH]c4ccc(OCc5ccccc5)cc34)c2c1` [CBK039342], the viability at 28.5 h, 10 µM stood at 91.8%.

As to `COc1ccc2[nH]c3c(c2c1)CCNC31CCN(Cc2cc(F)cc(F)c2)C1` (stereo not shown) [CBK039368], the viability at 28.5 h, 10 µM came out at 81.9%.

As for `O=C1Cc2c(ccc3ccccc23)C2(CCN(CC3CCCCO3)CC2)N1` (stereo not shown) [CBK039395], the viability at 28.5 h, 10 µM was 98.8%.

Take `Cc1ccc(C(=O)CN2CCC3(CC2)NCCc2c3[nH]c3ccc(F)cc23)cc1` [CBK039503]: the viability at 28.5 h, 10 µM amounted to 107%.

`Cc1cccc2c3c([nH]c12)C1(CCN(CC2CC2)C1)NCC3` (stereo not shown) [CBK039520]: the viability at 28.5 h, 10 µM worked out at 95.8%.

As to `Cc1ccc2[nH]c3c(c2c1)CCNC31CCN(CC2CCCCO2)CC1` (stereo not shown) [CBK039545], the viability at 28.5 h, 10 µM worked out at 103%.

Take `Cc1ccc(C(=O)CN2CCCC3(C2)NCCc2c3[nH]c3c(C)cccc23)cc1` (stereo not shown) [CBK039546]: the viability at 28.5 h, 10 µM stood at 96%.

Turning to `Cc1cccc2c3c([nH]c12)C1(CCCN(CCc2ccc([N+](=O)[O-])cc2)C1)NCC3` (stereo not shown) [CBK039558], the viability at 28.5 h, 10 µM stood at 92.4%.

On to `O=CN1CCc2c([nH]c3ccccc23)C12CCCN(Cc1ccc(C(F)(F)F)cc1)C2` (stereo not shown) [CBK039587], for which the viability at 28.5 h, 10 µM turned out to be 92.6%.
